Results taken from the NIST ThermoML archive (doi:10.1021/acs.jced.8b01233).
Values joined by “and” are separate entries in the source; they are usually repeats but may differ in a detail not shown here. Identical values can stand only once. Numbers after ± are expanded uncertainties.

Details: for viscosity / mass density / speed of sound: 102 kPa, Liquid; for viscosity: Concentric cylinders viscometry; for mass density: Vibrating tube method; for speed of sound: Frequency=3 MHz, Single path-length method; for surface tension liquid-gas: Pendant drop shape

CCCCC1CCCCC1 [butylcyclohexane]
Details	mass density [kg/m3]	speed of sound [m/s]	surface tension liquid-gas [mN/m]	viscosity [mPa·s]
253.15 K	829.9 ± 2	–	–	3.08 ± 0.06
288.15 K	803.07 ± 0.73	1348.8 ± 1.2	–	–
293.15 K	799.33 ± 0.73	1328.3 ± 1.2	–	1.32 ± 0.02
294.5 K	–	–	26.6 ± 0.4	–
298.15 K	795.57 ± 0.73	1308.1 ± 1.2	–	–
303.15 K	791.81 ± 0.73	1288 ± 1.2	–	1.11 ± 0.02
313.15 K	784.27 ± 0.73	1248.6 ± 1.2	–	0.95 ± 0.021
323.15 K	776.71 ± 0.73	1210.1 ± 1.2	–	0.826 ± 0.021
333.15 K	769.1 ± 0.73	1172.6 ± 1.2	–	0.729 ± 0.021

CCCCCCCCCCCC [dodecane]
Details	mass density [kg/m3]	speed of sound [m/s]	surface tension liquid-gas [mN/m]	viscosity [mPa·s]
288.15 K	752.41 ± 0.53	1317.4 ± 1	–	–
293.15 K	748.79 ± 0.53	1297.9 ± 1	–	1.51 ± 0.02
295 K	–	–	24.9 ± 0.3	–
298.15 K	745.16 ± 0.53	1278.7 ± 1	–	–
303.15 K	741.53 ± 0.53	1259.5 ± 1	–	1.25 ± 0.02
313.15 K	734.25 ± 0.53	1221.7 ± 1	–	1.06 ± 0.02
323.15 K	726.94 ± 0.53	1184.5 ± 1	–	0.916 ± 0.021
333.15 K	719.59 ± 0.53	1148.2 ± 1	–	0.798 ± 0.021

CCCCc1ccccc1 [butylbenzene]
Details	mass density [kg/m3]	speed of sound [m/s]	surface tension liquid-gas [mN/m]	viscosity [mPa·s]
253.15 K	892.8 ± 2	–	–	2.36 ± 0.06
288.15 K	864.7 ± 0.31	1373.7 ± 0.8	–	–
293.15 K	860.69 ± 0.31	1353.8 ± 0.8	–	1.04 ± 0.02
295 K	–	–	28.8 ± 0.3	–
298.15 K	856.68 ± 0.31	1334.1 ± 0.8	–	–
303.15 K	852.65 ± 0.31	1314.5 ± 0.8	–	0.891 ± 0.021
313.15 K	844.6 ± 0.31	1276.1 ± 0.8	–	0.773 ± 0.021
323.15 K	836.51 ± 0.31	1238.4 ± 0.8	–	0.679 ± 0.021
333.15 K	828.38 ± 0.31	1201.7 ± 0.8	–	0.601 ± 0.021

CC(CC(C)(C)C)CC(C)(C)CC(C)(C)C (stereo unspecified) [2,2,4,4,6,8,8-heptamethylnonane]
Details	mass density	speed of sound [m/s]	surface tension liquid-gas [mN/m]	viscosity [mPa·s]
253.15 K	811.5 ± 2 kg/m3 and 811.4 ± 2 kg/m3	–	–	14.1 ± 0.1
288.15 K	787.84 ± 0.52 kg/m3 and 787.76 ± 0.52 kg/m3	1305.1 ± 1	–	–
293.15 K	784.51 ± 0.52 kg/m3 and 784.4 ± 0.52 kg/m3	1286 ± 1	–	3.73 ± 0.03
295 K	–	–	24.2 ± 0.3	–
298.15 K	781.15 ± 0.52 kg/m3 and 781.05 ± 0.52 kg/m3	1267.1 ± 1	–	–
303.15 K	777.8 ± 0.52 kg/m3 and 777.7 ± 0.52 kg/m3	1248.1 ± 1	–	2.96 ± 0.03
313.15 K	771.09 ± 0.52 kg/m3 and 770.99 ± 0.52 kg/m3	1211.8 ± 1	–	2.4 ± 0.02
323.15 K	764.36 ± 0.52 kg/m3 and 764.27 ± 0.52 kg/m3	1176.1 ± 1	–	1.98 ± 0.02
333.15 K	757.62 ± 0.52 kg/m3 and 757.53 ± 0.52 kg/m3	1141.3 ± 1	–	1.66 ± 0.02
